Earlier results as cited in US6689588B1, “Garlic alliinase covalently bound to carrier for continuous production of allician” (Yeda Research and Development Co. Ltd., priority 1996, dated 2004).

Columns and labels:
bacteria, fungi, amebae = details: Cavallito et al., 1944; Barone and Tansey, 1977; Mirelman et al., 1987
[1] = Cavallito et al., 1944

For C=CCS[S+]([O-])CC=C (centres unmarked) [allicin, thio-2-propene-1-sulfinic acid S-allyl ester], the antimicrobial activity (bacteria, fungi, amebae) is given as “antibacterial, antifungal and antiamebic activity” and the chemical stability [1] is given as “chemically unstable”.
